Reference: PubChem BioAssay (NCI)
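The compound was tested at five concentrations on cells cultured in 96-well plates, with a 48-hour exposure period. Abbreviation: GI50, concentration required for 50% inhibition of growth. At the TGI there is no net growth.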

Assays:
Assay in all cases: growth of human tumour cells (NCI), 48 h
[1] = tested on: HOP-92 NSCLC
[2] = tested on: SF-268 CNS
[3] = tested on: PC-3 prostate
[4] = tested on: MOLT-4 leukemia
[5] = tested on: SN12C renal
[6] = tested on: EKVX NSCLC
[7] = tested on: LOX IMVI melanoma
[8] = tested on: HCC-2998 colon

| Compound | GI50 [1] [µM] | TGI [1] [µM] | GI50 [2] [µM] | TGI [2] [µM] | GI50 [3] [µM] | TGI [3] [µM] | GI50 [4] [µM] | TGI [4] [µM] | GI50 [5] [µM] | TGI [5] [µM] | GI50 [6] [µM] | TGI [6] [µM] | GI50 [7] [µM] | TGI [7] [µM] | GI50 [8] [µM] | TGI [8] [µM] |
| --- | --- | --- | --- | --- | --- | --- | --- | --- | --- | --- | --- | --- | --- | --- | --- | --- |
| COc1ccc(/C=C2/N=C(c3ccccc3)N(c3c(C)n(C)n(-c4ccccc4)c3=O)C2=O)cc1OC | > 100 | > 100 | > 100 | > 100 | > 100 | > 100 | 78.3 | > 100 | > 100 | > 100 | > 100 | > 100 | > 100 | > 100 | > 100 | > 100 |
| COc1ccc(-c2nc3ccc(-c4nc5ccc(N6CCN(c7ccccc7)CC6)cc5[nH]4)cc3[nH]2)cc1OC | 1.28 | 4 | 2.12 | 4.68 | 1.59 | 3.26 | 1.37 | 6.47 | 5.98 | 18.6 | 2.29 | 5.07 | 0.357 | 1.34 | 1.72 | 3.34 |
| COc1c(OC[C@H](O)CN2CCOCC2)ccc2c3n(c(=NC(=O)c4cccnc4C)nc12)CCN3 | 0.0637 | 10.1 | 12.4 | > 50 | 0.326 | > 50 | 0.305 | > 50 | 1.72 | > 50 | 1.05 | > 50 | 1.57 | > 50 | 1.9 | > 50 |
| COc1ccc2[nH]cc(C3(c4c[nH]c5ccc(OC)cc45)C(=O)Nc4ccc(F)cc43)c2c1 | 2.39 | 9.24 | 3.17 | 12.7 | 3.13 | 16.5 | 1.97 | 6.08 | 2.97 | 12.1 | 2.35 | 8.07 | 1.65 | 3.26 | 2.93 | 8.97 |
| Cc1ncc(C(=O)Nc2ccc(CN3CCN(C)CC3)c(C(F)(F)F)c2)cc1C#Cc1cnc(N)c2ccncc12 | 0.615 | 3.62 | 0.702 | 2.99 | 2.41 | 6.76 | 0.389 | 4.62 | 0.616 | 3.77 | 1.14 | 3.38 | 0.337 | 1.4 | 1.86 | 3.39 |
| CO/N=C(\COc1ccc2c(c1)oc(=O)c1cc(OC)ccc12)c1ccc(OC)cc1 | > 100 | > 100 | > 100 | > 100 | > 100 | > 100 | > 100 | > 100 | > 100 | > 100 | > 100 | > 100 | > 100 | > 100 | > 100 | > 100 |
| CCSc1ncnc2c1ncn2C1OC(CO)C(O)C1O (configuration not stated) | 1.98 | 12.2 | 1.02 | > 100 | 0.692 | > 71.3 | 0.173 | > 87.1 | 0.449 | > 100 | 0.419 | > 100 | 0.0945 | 16.8 | 0.203 | 7.35 |
| Cn1cc(C2=C(c3cn(CCCCO)c4ccccc34)C(=O)NC2=O)c2ccccc21 | 17.1 | > 25 | 8.63 | > 25 | 9.38 | > 25 | 7.68 | > 22 | 7.17 | > 25 |  |  | 5.62 | > 25 | 16.3 | > 25 |
| Cc1ccc(NC(=O)CC2CC2)cc1-c1ccc(C(=O)NCC2CC2)cc1 | 8.45 | > 25 | > 25 | > 25 | > 25 | > 25 | > 25 | > 25 | > 25 | > 25 | > 25 | > 25 | > 25 | > 25 | > 25 | > 25 |
| CCOC(=O)Nc1ccc(-c2nc(-c3cccc(OCCN4CCOCC4)c3)c(-c3ccnc(Br)c3)[nH]2)cc1 | 2.77 | 7.79 | 4.55 | > 100 | 2.87 | > 100 | 2.23 | > 100 | 3.77 | > 100 | 3.2 | > 100 |  |  | 2.28 | 6.11 |
| COc1cc(-c2cc(-c3cc4c([nH]c5ccccc54)c(-c4cc(OC)c(OC)c(OC)c4)n3)cc(-c3ccccc3)n2)cc(OC)c1OC | 1.45 | 6.25 | 4.96 | > 100 | 3.59 | 32.3 | 4.09 | 41.9 | 4.08 | > 100 |  |  | 4.42 | 26.5 | 7.3 | > 100 |
| Oc1cccnc1[Se] |  | > 100 |  | > 100 |  | > 100 |  | > 100 |  | > 100 |  | 80.2 |  | > 100 |  |  |
